Experimental data published in PubChem BioAssay AID179 (DTP/NCI, 2004).
Activity calls are given as the source filed them.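 How the source made its calls: active means compounds giving half or more protection of infected cells from virus-caused growth loss, again on retest; inactive means the rest.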

System: CEM cells HIV-1 protection, formazan growth assay
Test: NCI AIDS Antiviral Assay
Conditions: for IC50: measured here: growth of uninfected CEM cells
How it was run: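 Steps: treat uninfected and HIV-1-infected human CEM cells at five drug levels; quantify growth by soluble formazan; retest any compound reaching 50% protection; classify actives from the retest.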

C[n+]1c(-c2ccc(NC(=O)c3ccc(C(=O)Nc4ccc(-c5cn6ccccc6[n+]5C)cc4)cc3)cc2)cn2ccccc21
EC50: > 2.63 µM
IC50: 1.66 µM

Cc1nc2c(c(=O)[nH]1)OCN(C)C2
EC50: > 200 µM
IC50: 148 µM

O=c1c(O)cccc2cc(O)c(O)c(O)c12
EC50: > 427 µM
IC50: 23.4 µM

C=C(C)C(=O)OC1C/C(CO)=C\C(O)C/C(C)=C/C2OC(=O)C(=C)C21 (stereo not drawn)
EC50: > 724 µM
IC50: 12.3 µM

Nc1nc(Cl)nc(Cl)n1
EC50: > 200 µM
IC50: > 200 µM

O=C(c1ccco1)C1CC(c2ccc3ccccc3c2O)=NN1c1ccc([N+](=O)[O-])cc1[N+](=O)[O-] (stereo not drawn)
EC50: > 200 µM
IC50: 15.8 µM

NCCNC(=O)CCC(CN(CC(=O)O)CC(=O)O)N(CC(=O)O)CC(=O)O (stereo not drawn)
EC50: > 63.1 µM
IC50: > 63.1 µM

CC(C)CCCC(C)[C@H]1CCC(C2C[C@@H](O)[C@@H]3CC(O)[C@@H](O)C[C@]3(CO)C2=O)[C@]1(C)CCO (stereo partly drawn)
EC50: > 200 µM
IC50: 34.7 µM

Nc1ccc(S(=O)(=O)Nc2cnc3ccccc3n2)cc1
EC50: > 316 µM
IC50: > 316 µM

Cc1cc2c(C(C)C)c(O)c(O)c(C=O)c2c(O)c1-c1c(C)c(N(c2cccc3ccccc23)c2cccc3ccccc23)c2c(C(C)C)c(O)c(O)c(C=O)c2c1O
outcome: inactive

COc1cc2cc(c1Cl)N(C)C(=O)C[C@H](OC(=O)[C@H](C)N(C)C(C)=O)[C@]1(C)O[C@H]1[C@H](C)[C@@H]1C[C@@](O)(NC(=O)O1)[C@H](OC)C=C/C=C(\C)C2
outcome: inactive

COc1ccc2c(-c3ccc(O)cc3)c(Oc3ccccc3)c(=O)oc2c1
outcome: inactive

Cc1cc(Cl)ccc1NC(=O)C1C(=O)C(=O)N(c2ccc(Cl)cc2C)C1=O (stereo not drawn)
outcome: inactive

Cc1ccc(C)n1-c1ccccc1C1SCCCS1
EC50: > 200 µM
IC50: 195 µM

NC(N)=NS(=O)(=O)c1ccc(NNc2c3ccccc3nc3c(C(=O)Nc4ccc(S(=O)(=O)N=C(N)N)cc4)cccc23)cc1
EC50: > 200 µM
IC50: 33.1 µM

Cc1ccc(-c2cssc2=S)cc1
EC50: > 200 µM
IC50: > 200 µM

c1cc(-c2ccsc2-c2ccsc2)cs1
EC50: > 200 µM
IC50: 52.5 µM

COc1ccc(N=Nc2c(C)c(C#N)c(=S)n(C3OC(COC(C)=O)C(OC(C)=O)C(OC(C)=O)C3OC(C)=O)c2-c2ccccc2)cc1 (stereo not drawn)
EC50: > 200 µM
IC50: 126 µM

COc1ccc(C2(OC)Oc3cc(OC)ccc3C(=O)C2(O)OC)cc1 (stereo not drawn)
EC50: > 200 µM
IC50: 11 µM

N#CC(C#N)=C(N)/C(C#N)=C\c1ccnc2ccccc12
EC50: > 26.3 µM
IC50: 4.07 µM

CCCC[As](CCCC)SC1CCC2(C)C(=CCC3C4CCC(=O)C4(C)CCC32)C1 (stereo not drawn)
EC50: > 46.8 µM
IC50: 15.8 µM

CCOC(=O)/C(=C\c1cc(OC)ccc1OC)P(=O)(OCC)OCC
EC50: > 676 µM
IC50: 9.77 µM

COC(=O)C1=C(C(=O)OC)C2(C)OC1C(=O)C21CC1 (stereo not drawn)
outcome: inactive

Cn1c(=O)n2n(c1=O)C1(CCO)CCC2(CCO)CC1
EC50: > 331 µM
IC50: > 331 µM

CNc1nnc(CNc2ccc(-c3nnc(NC)n3N)cc2)n1N
EC50: > 200 µM
IC50: > 200 µM

CCOP(=O)(C/C=C/CN(C(=O)OC(C)(C)C)C(=O)OC(C)(C)C)OCC
outcome: inactive

Cc1noc2c1C(=O)CCC2
EC50: > 1660 µM
IC50: 148 µM

O=C1CCCC2=C1CC1=C(CCCC1=O)N2c1cccc([N+](=O)[O-])c1
EC50: > 186 µM
IC50: 170 µM

COc1ccc(/C=C2\C=Cc3ccccc32)cc1
EC50: > 16.2 µM
IC50: 13.8 µM

CCOC(=O)N1N=C(c2ccccc2)OC2(N3CCCC3)CCC(C(C)(C)C)CC12 (stereo not drawn)
EC50: 44.7 µM
IC50: 105 µM

COc1ccc2c(-c3ccc(OCCN(C)C)cc3)c(Oc3ccc(Cl)cc3)c(=O)oc2c1
EC50: > 200 µM
IC50: 5.89 µM

COC(=O)c1ccc(Cc2ccc(C(=O)OC)o2)o1
EC50: > 191 µM
IC50: > 191 µM
